Assay results taken from US20240190828A1, “Small Molecule Inhibitors of PBRM1-BD2” (The Medical College of Wisconsin, Inc., priority 2021, published 2024).
Read-outs that look alike come from different tables or passages of the source.

Tests used:
[1] = molecular target: T1, PBRM1-BD2 (Homo sapiens (Human), UniProt Q86U86); assay: AlphaScreen competition assay, His6-tagged PBRM1-BD2 and biotinylated H3K14ac peptide; type: binding; settings: 0.2 μM His6-PBRM1-BD2, 0.1 μM biotinylated H3K14ac peptide
T1 sequence (Q86U86 177-287): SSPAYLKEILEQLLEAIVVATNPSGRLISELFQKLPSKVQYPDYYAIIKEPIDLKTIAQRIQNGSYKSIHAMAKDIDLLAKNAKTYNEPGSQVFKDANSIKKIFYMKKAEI

[2] = molecular target: T1, PBRM1-BD2; assay: biochemical; type: binding
Protocol: DSF measures protein unfolding by monitoring the fluorescence of the SYPRO Orange dye as a function of temperature; positive thermal shifts indicate ligand binding induced stabilization of the protein.
(§1) Differential Scanning Fluorimetry (DSF). Bromodomain DSF Tm assays were performed using an Mx3005P (Stratagene) PCR detection system and low profile 96-well PCR plates (UltraFlux, Flat Top, SSI 3400-00S). […] The temperature was raised by 1° C./min from 25-95° C., and fluorescence readings were taken at each interval. Melting curves were analyzed using our online interactive fitting tool for thermofluor experiments (https://dsf-analysis.herokuapp.com/DSF-analysis) and plotted using GraphPad Prism.

[3] = molecular target: T1, PBRM1-BD2; assay: biochemical; type: binding; remark: listed apart in the source
Protocol: Protein-detected NMR-based fragment screening has the advantage of providing information about both binding affinity and the amino acid residues involved in binding.
NMR spectroscopy. Automated NMR data collection was performed on ^15N-labeled PBRM1-BD2 (50 μM) by using ^1H,^15N SOFAST-HMQC experiments. […] The total time for screening 85 or 82 samples each containing 12 fragments or DMSO by ^1H,^15N SOFAST-HMQC was 46 h (˜32 min/sample). […] All NMR data were processed using NMRPipe^4 in NMRbox.^5 Spectra were processed by using in-house automated Python scripts in NMRPipe,^4 and chemical shifts perturbation were analyzed using SPARKY.^6 Total ^1H/^15N chemical shift perturbations and equilibrium dissociation constants (Kd) were calculated as reported.^2

[4] = molecular target: T1, PBRM1-BD2; settings: read-out: Kd PBRM1-BD2; ITC; NB = did not bind (heat below 0.1 μcal per second)
Protocol: (§2) Binding affinities of inhibitors towards PBRM1-BD2, PBRM1-BD5, SMARCA2, SMARCA4, and ASH1L were determined using a VP-ITC instrument (MicroCal). […] Protein concentrations were determined via the method of Bradford.^1 The buffer used for all ITC experiments consisted of 50 mM HEPES (pH 7.5 at 20° C.), 500 mM NaCl, 5% v/v glycerol, and 1% v/v DMSO; except for experiments involving PBRM1-BD2 whose buffer consisted of 100 mM Na2PO4 (pH 7.5 at 20° C.), 100 mM NaCl, 5% v/v glycerol, and 1% v/v DMSO. Kd values were determined by least-squares fitting to the raw data using Origin (OriginLab).

[5] = molecular target: T2, PBRM1-BD5 (Homo sapiens (Human), UniProt Q86U86); settings: read-out: Kd PBRM1-BD5; ITC; NB = did not bind
T2 sequence (Q86U86 653-763): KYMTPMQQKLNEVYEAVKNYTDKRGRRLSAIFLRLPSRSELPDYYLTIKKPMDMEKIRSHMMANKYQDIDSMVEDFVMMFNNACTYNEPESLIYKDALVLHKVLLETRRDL
Protocol: as §2

[6] = molecular target: BRD2-BD2 (Homo sapiens (Human), UniProt P25440); assay: DSF selectivity profiling; type: binding
Chain of BRD2-BD2 (P25440 344-453): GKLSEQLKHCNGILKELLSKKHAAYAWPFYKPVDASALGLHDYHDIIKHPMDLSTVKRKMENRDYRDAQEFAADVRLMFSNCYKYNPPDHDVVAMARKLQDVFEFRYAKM
Protocol: as §1

[7] = molecular target: BRD3-BD1 (Homo sapiens (Human), UniProt Q15059); assay: DSF selectivity profiling; type: binding
Chain of BRD3-BD1 (Q15059 34-140): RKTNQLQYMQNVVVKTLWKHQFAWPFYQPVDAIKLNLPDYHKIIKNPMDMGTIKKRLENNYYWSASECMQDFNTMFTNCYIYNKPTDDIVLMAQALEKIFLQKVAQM
Protocol: as §1

[8] = molecular target: BRD3-BD2 (Homo sapiens (Human), UniProt Q15059); assay: DSF selectivity profiling; type: binding
Chain of BRD3-BD2 (Q15059 306-415): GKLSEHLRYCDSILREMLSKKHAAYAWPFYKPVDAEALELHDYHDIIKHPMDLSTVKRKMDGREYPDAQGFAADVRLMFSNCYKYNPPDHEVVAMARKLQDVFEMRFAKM
Protocol: as §1

[9] = molecular target: BRD4-BD1 (Homo sapiens (Human), UniProt O60885); assay: DSF selectivity profiling; type: binding
Protocol: as §1

[10] = molecular target: BRD4-BD2 (Homo sapiens (Human), UniProt O60885); assay: DSF selectivity profiling; type: binding
Protocol: as §1

[11] = molecular target: BRD7 (Homo sapiens (Human), UniProt Q9NPI1); assay: DSF selectivity profiling; type: binding
Chain of BRD7 (Q9NPI1 131-235): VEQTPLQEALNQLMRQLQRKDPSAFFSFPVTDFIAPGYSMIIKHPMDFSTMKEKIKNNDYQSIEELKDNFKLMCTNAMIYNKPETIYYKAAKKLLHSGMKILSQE
Protocol: as §1

[12] = molecular target: BRDT-BD1 (Homo sapiens (Human), UniProt Q58F21); assay: DSF selectivity profiling; type: binding
Protocol: as §1

[13] = molecular target: CECR2 (Homo sapiens (Human), UniProt Q9BXF3); assay: DSF selectivity profiling; type: binding
Chain of CECR2 (Q9BXF3 434-538): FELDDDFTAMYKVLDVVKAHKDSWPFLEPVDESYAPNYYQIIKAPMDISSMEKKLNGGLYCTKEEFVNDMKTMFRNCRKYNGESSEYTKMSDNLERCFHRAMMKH
Protocol: as §1

[14] = molecular target: CREBBP (Homo sapiens (Human), UniProt Q92793); assay: DSF selectivity profiling; type: binding
Chain of CREBBP (Q92793 1085-1192): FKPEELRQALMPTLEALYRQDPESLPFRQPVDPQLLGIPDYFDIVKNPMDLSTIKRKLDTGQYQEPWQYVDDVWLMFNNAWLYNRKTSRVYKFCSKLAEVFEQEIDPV
Protocol: as §1

[15] = molecular target: PBRM1-BD1 (Homo sapiens (Human), UniProt Q86U86); assay: DSF selectivity profiling; type: binding
Chain of PBRM1-BD1 (Q86U86 41-151): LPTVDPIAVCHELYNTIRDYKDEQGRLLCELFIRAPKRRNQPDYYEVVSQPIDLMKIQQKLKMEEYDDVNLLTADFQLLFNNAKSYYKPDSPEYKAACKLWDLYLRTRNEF
Protocol: as §1

[16] = molecular target: PBRM1-BD3 (Homo sapiens (Human), UniProt Q86U86); assay: DSF selectivity profiling; type: binding
Chain of PBRM1-BD3 (Q86U86 381-487): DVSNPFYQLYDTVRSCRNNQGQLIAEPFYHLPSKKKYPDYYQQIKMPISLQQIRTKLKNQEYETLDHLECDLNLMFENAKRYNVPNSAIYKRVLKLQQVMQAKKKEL
Protocol: as §1

[17] = molecular target: PBRM1-BD4 (Homo sapiens (Human), UniProt Q86U86); assay: DSF selectivity profiling; type: binding
Chain of PBRM1-BD4 (Q86U86 518-625): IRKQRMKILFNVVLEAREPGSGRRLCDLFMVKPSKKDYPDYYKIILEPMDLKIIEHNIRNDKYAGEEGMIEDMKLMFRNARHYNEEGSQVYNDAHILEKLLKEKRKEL
Protocol: as §1

[18] = molecular target: PBRM1-BD6 (Homo sapiens (Human), UniProt Q86U86); assay: DSF selectivity profiling; type: binding
Chain of PBRM1-BD6 (Q86U86 769-879): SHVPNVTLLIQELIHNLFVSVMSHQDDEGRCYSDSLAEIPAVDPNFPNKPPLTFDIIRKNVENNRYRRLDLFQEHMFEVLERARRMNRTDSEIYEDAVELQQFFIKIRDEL
Protocol: as §1

[19] = molecular target: PCAF (Homo sapiens (Human), UniProt Q92831); assay: DSF selectivity profiling; type: binding
Chain of PCAF (Q92831 723-827): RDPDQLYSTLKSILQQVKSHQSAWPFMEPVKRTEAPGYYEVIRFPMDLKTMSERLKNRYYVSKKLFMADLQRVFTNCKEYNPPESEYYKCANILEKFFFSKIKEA
Protocol: as §1

[20] = molecular target: SMARCA2 (Homo sapiens (Human), UniProt P51531); assay: DSF selectivity profiling; type: binding
Chain of SMARCA2 (P51531 1378-1506): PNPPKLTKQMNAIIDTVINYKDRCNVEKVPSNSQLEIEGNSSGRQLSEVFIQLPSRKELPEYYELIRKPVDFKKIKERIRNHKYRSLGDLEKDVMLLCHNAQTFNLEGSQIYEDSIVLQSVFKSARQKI
Protocol: as §1

[21] = molecular target: SMARCA4 (Homo sapiens (Human), UniProt P51532); assay: DSF selectivity profiling; type: binding
Chain of SMARCA4 (P51532 1453-1564): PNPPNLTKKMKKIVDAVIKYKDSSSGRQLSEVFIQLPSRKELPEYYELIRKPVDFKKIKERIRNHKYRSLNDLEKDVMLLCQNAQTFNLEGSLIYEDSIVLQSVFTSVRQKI
Protocol: as §1

[22] = molecular target: TRIM33A (Homo sapiens (Human), UniProt Q9UPN9); assay: DSF selectivity profiling; type: binding
Chain of TRIM33A (Q9UPN9 957-1080): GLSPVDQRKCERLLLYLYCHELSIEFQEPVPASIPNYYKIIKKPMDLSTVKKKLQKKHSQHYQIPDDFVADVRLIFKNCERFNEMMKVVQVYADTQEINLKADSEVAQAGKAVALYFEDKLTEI
Protocol: as §1

[23] = molecular target: p300 (Homo sapiens (Human), UniProt Q09472); assay: DSF selectivity profiling; type: binding
Chain of p300 (Q09472 1049-1156): as the sequence (Q92793 1085-1192) above, with N47S, V73I, F93Y, A98S counted along it
Protocol: as §1

[24] = system: PC3 cells; assay: Cell viability assay (CellTiter-Glo); type: cell-based, human; settings: 10, 1 and 0.1 μM
Protocol: Cell Viability Assays. Cells were seeded in a 96-well plate and incubated for 12-24 h prior to initial treatment. The number of cells per well was chosen empirically based on cell growth rates (LNCaP-5,000 cells/well, PC3 and RWPE-1-3,000 cells per well, HEK293T-1,000 cells/well). Cells were treated with either DMSO control or serial dilutions of inhibitors and media with compound was refreshed every 48 h.

[25] = molecular target: T2, PBRM1-BD5; settings: DSF
[26] = molecular target: ASH1L (Homo sapiens (Human), UniProt Q9NR48); assay: DSF selectivity profiling; type: binding
Protocol: as §1

[27] = read-out: PBRM1-BD2 ΔTm, DSF, 10 μM protein, 100 μM inhibitor, vs apoprotein

COc1cccc2c1C(=O)NC(c1ccccc1C)N2 (centres unmarked) [Compound 31, 5-Methoxy-2-(2-methylphenyl)-2,3-dihydroquinazolin-4(1H)-one]
IC50 [1]: > 70 µM
ΔTm at 100 µM [2, 27]: 0 °C

NC(=S)c1ccc(F)cc1 [Compound 6h]
Kd ([3]; read-out: Kd): > 2000 µM

O=C1NC(c2c(F)cccc2Cl)Nc2ccccc21 (centres unmarked) [Compound 5, 2-(2-Chloro-6-fluorophenyl)-2,3-dihydroquinazolin-4(1H)-one]
Kd [3]: 50 µM
Kd ([3]; NMR titration, chemical shift perturbations vs fragment concentration, read-out: Kd): 45.3 ± 8.1 µM
IC50 [1]: 4.2 ± 1.3 µM
ΔTm at 100 µM [2, 27]: 1 ± 0.2 °C
Kd [4]: 18.4 µM
Kd [5]: 179 µM

CCC(/C=C1\CCn2c1nc(=O)c1c(Cl)cccc12)CC [Compound 7, (E)-6-Chloro-3-(2-ethylbutylidene)-2,3-dihydropyrrolo[1,2-a]quinazolin-5(1H)-one, reference compound]
PBRM1-BD2 ΔTm ([2]; DSF, 10 μM protein, 100 μM inhibitor, vs apoprotein): > 7.5 °C
ΔTm at 100 µM [2, 27]: 7.7 °C
BRD2-BD2 ΔTm [6]: 0.6 °C
BRD3-BD1 ΔTm [7]: −0.3 °C
BRD3-BD2 ΔTm [8]: 0.4 °C
BRD4-BD1 ΔTm [9]: −0.2 °C
BRD4-BD2 ΔTm [10]: −1.1 °C
BRD7 ΔTm [11]: 0.4 °C
BRDT-BD1 ΔTm [12]: −0.8 °C
CECR2 ΔTm [13]: −0.9 °C
CREBBP ΔTm [14]: −0.7 °C
PBRM1-BD1 ΔTm [15]: −0.9 °C
PBRM1-BD3 ΔTm [16]: 2.8 °C
PBRM1-BD4 ΔTm [17]: 3.9 °C
PBRM1-BD6 ΔTm [18]: −1.5 °C
PCAF ΔTm [19]: 0.4 °C
SMARCA2 ΔTm [20]: 3.0 °C
SMARCA4 ΔTm [21]: 3.1 °C
TRIM33A ΔTm [22]: 0.3 °C
p300 ΔTm [23]: −0.5 °C
growth inhibition of PC3 cells [24]: more significant inhibition of PBRM1-independent prostate cancer cell line PC3
PBRM1-BD5 ΔTm [25]: 11.0 °C

CCC(/C=C1\CCn2c1nc(=O)c1ccccc12)CC [Compound 8, (E)-3-(2-Ethylbutylidene)-2,3-dihydropyrrolo[1,2-a]quinazolin-5(1H)-one, reference compound]
ASH1L ΔTm [26]: did not show binding

COc1cccc(OCC(F)(F)F)c1C#N [Compound 6i]
Kd ([3]; read-out: Kd): > 2000 µM

O=C(O)c1ccccc1Nc1cc(Cl)ccc1C(=O)O [Compound 37, 2-((2-Carboxyphenyl)amino)-4-chlorobenzoic acid]
IC50 [1]: > 250 µM
ΔTm at 100 µM ([2]; read-out: PBRM1-BD2 ΔTm): 0.3 ± 0.02 °C
